The source made the active and inactive calls. The rule behind the calls is not given here.
Tested on: CCRIS mutagenicity, Ames/micronucleus/aberration tests
Experiment: CCRIS mutagenicity studies
[1] = Test System: AMES SALMONELLA TYPHIMURIUM, Strain/Indicator: TA98, Metabolic Activation: RAT, LIVER, S-9, AROCLOR 1254, Method: STANDARD PLATE
[2] = Test System: AMES SALMONELLA TYPHIMURIUM, Strain/Indicator: TA98, Metabolic Activation: NONE, Method: STANDARD PLATE
[3] = Test System: AMES SALMONELLA TYPHIMURIUM, Strain/Indicator: TA100, Metabolic Activation: NONE, Method: STANDARD PLATE
[4] = Test System: AMES SALMONELLA TYPHIMURIUM, Strain/Indicator: TA100, Metabolic Activation: RAT, LIVER, S-9, AROCLOR 1254, Method: STANDARD PLATE
[5] = Test System: AMES SALMONELLA TYPHIMURIUM, Strain/Indicator: TA98, Metabolic Activation: NONE, Method: PREINCUBATION
[6] = Test System: AMES SALMONELLA TYPHIMURIUM, Strain/Indicator: TA100, Metabolic Activation: NONE, Method: PREINCUBATION
[7] = Test System: AMES SALMONELLA TYPHIMURIUM, Strain/Indicator: TA1535, Metabolic Activation: NONE, Method: PREINCUBATION
[8] = Test System: AMES SALMONELLA TYPHIMURIUM, Strain/Indicator: TA1537, Metabolic Activation: NONE, Method: PREINCUBATION

OC1CC=Cc2c1cc1ccc3cccc4ccc2c1c34 (centres undefined)
mutagenic call [1]: active; positive

Clc1cccc2c1oc1ccccc12
mutagenic call [2]: inactive; negative
mutagenic call (Test System: AMES SALMONELLA TYPHIMURIUM, Strain/Indicator: TA98, Metabolic Activation: RAT, LIVER, S-9, PHENOBARBITAL AND NAPHTHOFLAVONE, Method: STANDARD PLATE): inactive; negative
mutagenic call [3]: inactive; negative
mutagenic call (Test System: AMES SALMONELLA TYPHIMURIUM, Strain/Indicator: TA100, Metabolic Activation: RAT, LIVER, S-9, PHENOBARBITAL AND NAPHTHOFLAVONE, Method: STANDARD PLATE): inactive; negative

O=C(O)c1ccc(ON2P(Oc3ccc(C(=O)O)cc3)N=P(Oc3ccc(C(=O)O)cc3)(Oc3ccc(C(=O)O)cc3)N(Oc3ccc(C(=O)O)cc3)P2Oc2ccc(C(=O)O)cc2)cc1 (centres undefined)
mutagenic call [2]: inactive; negative
mutagenic call [1]: inactive; negative
mutagenic call [3]: inactive; negative
mutagenic call [4]: inactive; negative

ClCc1cccnc1
mutagenic call [2]: inactive; negative
mutagenic call [1]: inactive; negative
mutagenic call [4]: active; positive
mutagenic call (Test System: AMES SALMONELLA TYPHIMURIUM, Strain/Indicator: TA102, Metabolic Activation: NONE, Method: STANDARD PLATE): inactive; negative
mutagenic call (Test System: AMES SALMONELLA TYPHIMURIUM, Strain/Indicator: TA102, Metabolic Activation: RAT, LIVER, S-9, AROCLOR 1254, Method: STANDARD PLATE): inactive; negative
mutagenic call (Test System: E. COLI, Strain/Indicator: WP2 UVRA, Metabolic Activation: MOUSE, LIVER, S-9, AROCLOR 1254, Method: STANDARD PLATE): inactive; negative
mutagenic call (Test System: E. COLI, Strain/Indicator: WP2 UVRA, Metabolic Activation: NONE, Method: STANDARD PLATE): inactive; negative
mutagenic call (Test System: E. COLI, Strain/Indicator: WP2 UVRA, Metabolic Activation: RAT, LIVER, S-9, AROCLOR 1254, Method: STANDARD PLATE): inactive; negative
mutagenic call (Test System: E. COLI, Strain/Indicator: WP2 UVRA, Metabolic Activation: RAT, LIVER, S-9, Method: STANDARD PLATE): inactive; negative
mutagenic call (Test System: MOUSE LYMPHOMA, Strain/Indicator: L5178Y (TK+/TK-), Metabolic Activation: NONE, Method: SUSPENSION/PLATE): active; positive
mutagenic call (Test System: MOUSE LYMPHOMA, Strain/Indicator: L5178Y (TK+/TK-), Metabolic Activation: RAT, LIVER, S-9, AROCLOR 1254, Method: SUSPENSION/PLATE): active; positive

CC(=O)OCc1ccco1
mutagenic call (Test System: AMES SALMONELLA TYPHIMURIUM, Strain/Indicator: TA98, Metabolic Activation: HAMSTER, LIVER, S-9, AROCLOR 1254 (10%), Method: PREINCUBATION): inactive; negative
mutagenic call [5]: inactive; negative
mutagenic call (Test System: AMES SALMONELLA TYPHIMURIUM, Strain/Indicator: TA98, Metabolic Activation: RAT, LIVER, S-9, AROCLOR 1254 (10%), Method: PREINCUBATION): active; positive
mutagenic call (Test System: AMES SALMONELLA TYPHIMURIUM, Strain/Indicator: TA100, Metabolic Activation: HAMSTER, LIVER, AROCLOR 1254 (10%), Method: PREINCUBATION): inactive; negative
mutagenic call [6]: active; positive
mutagenic call (Test System: AMES SALMONELLA TYPHIMURIUM, Strain/Indicator: TA100, Metabolic Activation: RAT, LIVER, S-9, AROCLOR 1254 (10%), Method: PREINCUBATION): active; positive
mutagenic call (Test System: AMES SALMONELLA TYPHIMURIUM, Strain/Indicator: TA1535, Metabolic Activation: HAMSTER, LIVER, S-9, AROCLOR 1254 (10%), Method: PREINCUBATION): inactive; negative
mutagenic call [7]: inactive; negative
mutagenic call (Test System: AMES SALMONELLA TYPHIMURIUM, Strain/Indicator: TA1535, Metabolic Activation: RAT, LIVER, S-9, AROCLOR 1254 (10%), Method: PREINCUBATION): inactive; negative
mutagenic call (Test System: AMES SALMONELLA TYPHIMURIUM, Strain/Indicator: TA1537, Metabolic Activation: HAMSTER, LIVER, S-9, AROCLOR 1254 (10%), Method: PREINCUBATION): inactive; negative
mutagenic call [8]: inactive; negative
mutagenic call (Test System: AMES SALMONELLA TYPHIMURIUM, Strain/Indicator: TA1537, Metabolic Activation: RAT, LIVER, S-9, AROCLOR 1254 (10%), Method: PREINCUBATION): inactive; negative

CCOCn1cc(F)c(=O)n(C(=O)c2cccc(C(=O)Oc3nc(OC(=O)c4ccccc4)ccc3C#N)c2)c1=O
mutagenic call [5]: inactive; negative
mutagenic call (Test System: AMES SALMONELLA TYPHIMURIUM, Strain/Indicator: TA98, Metabolic Activation: S-9, Method: PREINCUBATION): inactive; negative
mutagenic call [6]: inactive; negative
mutagenic call (Test System: AMES SALMONELLA TYPHIMURIUM, Strain/Indicator: TA100, Metabolic Activation: S-9, Method: PREINCUBATION): inactive; negative
mutagenic call [7]: inactive; negative
mutagenic call (Test System: AMES SALMONELLA TYPHIMURIUM, Strain/Indicator: TA1535, Metabolic Activation: S-9, Method: PREINCUBATION): inactive; negative
mutagenic call [8]: inactive; negative
mutagenic call (Test System: AMES SALMONELLA TYPHIMURIUM, Strain/Indicator: TA1537, Metabolic Activation: S-9, Method: PREINCUBATION): inactive; negative
mutagenic call (Test System: E. COLI, Strain/Indicator: WP2 UVRA, Metabolic Activation: NONE, Method: PREINCUBATION): inactive; negative
mutagenic call (Test System: E. COLI, Strain/Indicator: WP2 UVRA, Metabolic Activation: S-9, Method: PREINCUBATION): inactive; negative

O=[N+]([O-])c1ccc2nc3c([N+](=O)[O-])cccc3nc2c1
mutagenic call (Test System: AMES SALMONELLA TYPHIMURIUM, Strain/Indicator: TA98(NR), Metabolic Activation: NONE, Method: PREINCUBATION): active; positive
mutagenic call [5]: active; positive

O=[C]/C=C\C(=O)CC(=O)CC(=O)O
mutagenic call (Test System: CHINESE HAMSTER V-79, Strain/Indicator: V-79 (HGPRT)/6-THIOGUANINE, Metabolic Activation: NONE): inactive; negative

O=C1C=Cc2ccc3c4c(ccc1c24)C(=O)C=C3
mutagenic call (Test System: AMES SALMONELLA TYPHIMURIUM, Strain/Indicator: TA97, Metabolic Activation: NONE, Method: STANDARD PLATE): active; positive
mutagenic call (Test System: AMES SALMONELLA TYPHIMURIUM, Strain/Indicator: TA97, Metabolic Activation: RAT, LIVER, S-9, PCB, Method: STANDARD PLATE): active; positive
mutagenic call [2]: inactive; negative
mutagenic call (Test System: AMES SALMONELLA TYPHIMURIUM, Strain/Indicator: TA98, Metabolic Activation: RAT, LIVER, S-9, PCB, Method: STANDARD PLATE): inactive; negative
mutagenic call [3]: inactive; negative
mutagenic call (Test System: AMES SALMONELLA TYPHIMURIUM, Strain/Indicator: TA100, Metabolic Activation: RAT, LIVER, S-9, PCB, Method: STANDARD PLATE): inactive; negative

CC(=O)Nc1ccc2c3c(cccc13)-c1cc(O)ccc1-2
mutagenic call [2]: active; positive
mutagenic call [1]: active; positive

O=[N+]([O-])c1ccc2c(c1)-c1cccc3cccc-2c13
mutagenic call [2]: active; positive

— PubChem BioAssay AID1259407 (Chemical Carcinogenesis Research Information System (CCRIS), 2018)
